Laboratory results as given in paper PMC10941181 (2024).

Tests used:
[1] = tested on: R2-Pu24T (G4 DNA) (DNA, G4) AGCACTCTAGCTCTATGAGGGTGGTGAGGGTGGGGAAGG; assay: 1H NMR imino shifts; settings: K+, 10 mM potassium phosphate; pH 7.4, 298 K
[2] = tested on: Cy5-Pu24T G4 (DNA, G4) AGCACTCTAGCTCTATGAGGGTGGTGAGGGTGGGGAAGG; assay: microscale thermophoresis; settings: 100 mM KCl, 10 mM potassium phosphate; pH 7.4, 0.05% Tween 20; 20 nM labelled DNA; GL 0.6 nM to 2.5 μM

For `Cc1cc(N2CCNCC2)nc(Nc2nc(C)c3ccc4c(c3n2)CCC4)n1`, the binding [1] was “yes” and the Kd [2] was > 200 nM.
